# Experimental data as given in PubChem BioAssay (NCI).
# Values joined by “and” are separate entries in the source; they are usually repeats but may differ in a detail not shown here. Equal values may be shown once.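 48-hour exposure; five concentrations; linearly interpolated endpoints. GI50: concentration for 50% inhibition of growth. TGI: concentration producing complete growth inhibition.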
# How the values were obtained:
# Experiment in all cases: growth of human tumour cells (NCI), 48 h
# SNB-78 CNS = tested on: SNB-78 CNS
# DMS 114 small cell lung = tested on: DMS 114 small cell lung
# KM20L2 colon = tested on: KM20L2 colon
# ACHN renal = tested on: ACHN renal
# LXFL 529 NSCLC = tested on: LXFL 529 NSCLC
# DLD-1 colon = tested on: DLD-1 colon
# 786-0 renal = tested on: 786-0 renal
# HOP-18 NSCLC = tested on: HOP-18 NSCLC
# DU-145 prostate = tested on: DU-145 prostate
# HS 578T breast = tested on: HS 578T breast
# MDA-MB-231 breast = tested on: MDA-MB-231 breast
# BT-549 breast = tested on: BT-549 breast
Compound,TGI (SNB-78 CNS) [µM],TGI (DMS 114 small cell lung) [µM],TGI (KM20L2 colon) [µM],TGI (ACHN renal),TGI (LXFL 529 NSCLC) [µM],TGI (DLD-1 colon),TGI (786-0 renal) [µM],TGI (HOP-18 NSCLC) [µM],GI50 (KM20L2 colon) [µM],GI50 (ACHN renal) [µM],TGI (DU-145 prostate) [µM],TGI (HS 578T breast) [µM],TGI (MDA-MB-231 breast) [µM],GI50 (HOP-18 NSCLC) [µM],TGI (BT-549 breast) [µM],GI50 (786-0 renal) [µM],GI50 (DU-145 prostate) [µM],GI50 (HS 578T breast) [µM],GI50 (MDA-MB-231 breast) [µM],GI50 (BT-549 breast) [µM]
NCCSSCc1ccccc1CSSCCN,> 100,> 100,> 100,> 100 µM,> 100,> 100 µM,> 100,> 100,–,–,–,–,–,–,–,–,–,–,–,–
C=CCNC(=O)NCCCCC(NC(C)=O)C(=O)NCc1ccccc1 (centres undefined),–,> 100,> 100,> 100 µM,> 100,–,> 100,> 100,–,–,–,–,–,–,–,–,–,–,–,–
Cc1c(C)c2ccc3oc4ccccc4c3c2oc1=O,> 100,> 100,> 100,> 100 µM,> 100,> 100 µM,> 100,> 100,–,–,–,–,–,–,–,–,–,–,–,–
CN(CCS(=O)(=O)N1C(=O)C2CCCN2C(=O)[C@@H]1Cc1ccccc1)C(=O)OCc1ccccc1 (some centres undefined),> 100,> 100,> 100,73.4 µM,> 100,> 100 µM,> 100,> 100,–,–,–,–,–,–,–,–,–,–,–,–
C=CSCCC(N)C(=O)O (centres undefined),> 100,> 100,> 100,> 100 µM,> 100,> 100 µM,> 100,> 100,–,–,–,–,–,–,–,–,–,–,–,–
O=C1[C@H]2ON(c3ccccc3)C(c3ccc([N+](=O)[O-])cc3)[C@H]2C(=O)N1c1ccc(Cc2ccc(N3C(=O)[C@@H]4ON(c5ccccc5)C(c5ccc([N+](=O)[O-])cc5)[C@@H]4C3=O)cc2)cc1 (some centres undefined),> 100,> 100,> 100,> 100 µM,> 100,> 100 µM,> 100,> 100,–,–,–,–,–,–,–,–,–,–,–,–
COc1cccc2c1c1ccc3c(c1n2C)C(=O)C=CC3=O,42.5,43.4,> 100,28.6 µM,24.4,31.2 µM,31.4,29,–,–,–,–,–,–,–,–,–,–,–,–
Cc1nc2sccn2c1C(=O)NN,–,> 100,> 100,> 100 µM,> 100,> 100 µM,> 100,> 100,–,–,–,–,–,–,–,–,–,–,–,–
NNC(=O)C(=O)N/N=C(\CCCC(=O)Nc1ccc(Cl)cc1)CC(=O)c1ccc(F)cc1,> 100,> 100,> 100,> 100 µM,> 100,> 100 µM,> 100,> 100,–,–,–,–,–,–,–,–,–,–,–,–
CCN(CC)CCCNc1nccc2c(C)c3c(cc12)c1cnccc1n3C,2.76,0.463,1.93,2.41 µM,–,0.266 µM,1.2,–,–,–,–,–,–,–,–,–,–,–,–,–
CC(C)(C)C1=CC(=C(P(=O)(O)O)P(=O)(O)O)C=C(C(C)(C)C)C1=O,> 50,> 50,> 50,> 50 µM,> 50,> 50 µM,> 50,> 50,–,–,–,–,–,–,–,–,–,–,–,–
CC1=N/C(=C/c2ccc3c(c2)OCO3)C(=O)O1,> 100,> 100,> 100,> 100 µM,> 100,–,> 100,> 100,–,–,–,–,–,–,–,–,–,–,–,–
CC(=O)Nc1ccc(/C=C/C(=O)c2sc(-c3cccnc3)nc2C)cc1,> 100,> 100,> 100,> 100 µM,–,> 100 µM,> 100,> 100,–,–,–,–,–,–,–,–,–,–,–,–
COC(=O)[C@@H]1c2cc3c(c(O)c2[C@@H](OC2OC(C)C(OC)C(C)(OC)C2OC)C[C@]1(C)O)C(=O)c1c(O)cc2c(c1C3=O)O[C@H]1O[C@]2(C)[C@H](O)[C@@H](N(C)C)[C@@H]1O (some centres undefined),0.0762,0.00521,–,0.951 µM and 5.37 µM,1.28,0.258 µM and 0.436 µM,2.1,–,0.0127,0.0114,0.455,0.147,0.214,0.0404,0.0588,–,–,–,–,–
O=C(CCC(=O)Nc1ccc(Cl)c(Cl)c1)Cc1nc2ccccc2o1,> 100,> 100,> 100,> 100 µM,> 100,–,> 100,> 100,–,–,–,–,–,–,–,–,–,–,–,–
C=C[C@@H](C)[C@]1(C(=O)OC)CCCC12OCCO2,–,> 100,> 100,> 100 µM,> 100,> 100 µM,> 100,> 100,–,–,–,–,–,–,–,–,–,–,–,–
N#C/C(=C\c1cc(O)cc(O)c1)C(N)=O,> 100,> 100,> 100,> 100 µM,> 100,> 100 µM,> 100,–,–,–,–,–,–,–,–,–,–,–,–,–
C=CCC1(CN(C)C)CC/C(=C\c2ccc(OC)cc2)C1=O (centres undefined),> 100,> 100,> 100,> 100 µM,> 100,> 100 µM,> 100,> 100,–,–,–,–,–,–,–,–,–,–,–,–
CC(C)(O)C(O)COc1c2c(cc3oc(=O)ccc13)OCO2 (centres undefined),–,> 100,> 100,> 100 µM,> 100,> 100 µM,> 100,> 100,–,–,–,–,–,–,–,–,–,–,–,–
O=C(C(=O)c1cc2ccccc2[nH]1)c1cc2ccccc2[nH]1,> 347,> 347,> 347,> 347 µM,> 347,> 347 µM,> 347,–,–,–,–,–,–,–,–,–,–,–,–,–

Compound,TGI (SNB-78 CNS) [µM],TGI (DMS 114 small cell lung) [µM],TGI (KM20L2 colon) [µM],TGI (ACHN renal),TGI (LXFL 529 NSCLC) [µM],TGI (DLD-1 colon),TGI (786-0 renal) [µM],TGI (HOP-18 NSCLC) [µM],GI50 (KM20L2 colon) [µM],GI50 (ACHN renal) [µM],TGI (DU-145 prostate) [µM],TGI (HS 578T breast) [µM],TGI (MDA-MB-231 breast) [µM],GI50 (HOP-18 NSCLC) [µM],TGI (BT-549 breast) [µM],GI50 (786-0 renal) [µM],GI50 (DU-145 prostate) [µM],GI50 (HS 578T breast) [µM],GI50 (MDA-MB-231 breast) [µM],GI50 (BT-549 breast) [µM]
COc1cc(/C=C2\C(=O)N(C(=O)Cc3ccccc3)N=C2C)cc(OC)c1OC,> 100,> 100,–,> 100 µM,–,> 100 µM,> 100,> 100,–,–,–,–,–,–,–,–,–,–,–,–
COC1CCC(OS(C)(=O)=O)C(CO)O1 (centres undefined),–,–,> 100,> 100 µM,> 100,> 100 µM,> 100,–,–,–,–,–,–,–,–,–,–,–,–,–
O=C(/C=C\c1ccccc1O)c1ccc(O)cc1O,> 100,> 100,> 100,> 100 µM,> 100,> 100 µM,> 100,> 100,–,–,–,–,–,–,–,–,–,–,–,–
CC1(C)OC2C(CCP(=O)(O)O)OC(c3nc(C(N)=O)cs3)C2O1 (centres undefined),–,> 100,> 100,> 100 µM,> 100,> 100 µM,> 100,> 100,–,–,–,–,–,–,–,–,–,–,–,–
CSc1ccc2c(cc1=O)[C@@H](NC(=O)c1cccc([N+](=O)[O-])c1)CCc1cc(O)c(O)c(O)c1-2,–,60,56.5,> 100 µM,> 100,> 100 µM,> 100,> 100,–,–,–,–,–,–,–,–,–,–,–,–
COc1ccc(Cc2c3cc(O)c(=O)cc-3ccn2C)cc1,> 100,62.4,> 100,> 100 µM,–,> 100 µM,> 66.8,> 100,–,–,–,–,–,–,–,–,–,–,–,–
O=C1C=C(Nc2ccc(Cl)cc2Cl)c2ccccc2C1=O,> 100,64.1,> 100,> 100 µM,> 100,> 100 µM,> 100,–,–,–,–,–,–,–,–,–,–,–,–,–
Cc1ccc(C)c(N2C(=O)C(=O)C(c3nc4ccccc4s3)/C(=N/N)C2=O)c1 (centres undefined),> 100,> 100,> 100,> 100 µM,> 100,> 100 µM,> 100,> 100,–,–,–,–,–,–,–,–,–,–,–,–
NC(=O)NNC(=O)CCn1[nH]c(=O)c(Cl)c(Cl)c1=O,> 100,> 100,> 100,> 100 µM,> 100,> 100 µM,> 100,> 100,–,–,–,–,–,–,–,–,–,–,–,–
C/C(=N\N=C(N)N)C(CN1CCCCC1)C(c1ccccc1)c1c(O)c2ccccc2oc1=O (centres undefined),–,> 100,> 100,> 100 µM,> 100,> 100 µM,> 100,–,–,–,–,–,–,–,–,–,–,–,–,–
Cc1cnc2ccc(C)c([N+](=O)[O-])c2c1NCCCN(C)C,> 100,> 100,> 100,> 100 µM,–,–,> 100,–,–,–,–,–,–,–,–,–,–,–,–,–
O=c1c2ccccc2sc2c(NCCCNCCO)nc3ccccc3c12,–,–,–,2.81 µM,–,–,2.92,–,–,1.39,3.33,5.65,2.63,–,11.1,1.49,1.6,1.67,1.13,2.81
O=C(O)CCNCC(=O)O,–,–,–,> 100 µM,–,–,> 100,–,–,–,> 100,> 100,> 100,–,> 100,–,–,–,–,–
CCOC(=O)C1=CCCC[C@H]1S(=O)(=O)Nc1ccc(F)cc1Cl,–,–,–,> 100 µM,–,–,> 100,–,–,29,> 100,89.3,98.6,–,61,32.9,25.4,20.3,28.4,19.6
C=C(CCCCC)CN1CCCC1C(C)=O (centres undefined),> 76.6,42.8,> 100,> 85.4 µM,> 100,> 100 µM,> 100,> 94.8,–,–,–,–,–,–,–,–,–,–,–,–
COc1cc(C2C(Cl)C(=O)N2NC(=O)Cc2ccccc2)cc(Br)c1O (centres undefined),> 100,> 100,> 100,> 100 µM,> 100,> 100 µM,> 100,> 100,–,–,–,–,–,–,–,–,–,–,–,–
COc1ccc(C2(Cl)c3ccccc3N(c3ccccc3)c3ccccc32)cc1,–,–,–,10.1 µM,–,–,2.06,–,–,0.598,2.04,17.2,2.54,–,1.42,0.618,0.536,0.407,0.759,0.211
CCC[C@H]1O[C@@H]2CC(=O)O[C@@H]2C2=C1C(=O)C=CC2=O,45.7,–,43.8,25.7 µM,29.6,35.8 µM,30.3,31.9,–,–,–,–,–,–,–,–,–,–,–,–
COc1c/c(=C2\C=c3ccccc3=N2)[nH]/c1=C\c1[nH]c(C)cc1C,–,–,–,2.33 µM,–,–,4.21,–,–,< 0.0224,> 81.4,0.433,3.87,–,31.3,0.048,0.0174,0.0131,0.0117,0.0319
